Assay results as given in patent publication US10448639B2, “Fungicidal pyrazoles” (FMC CORPORATION, priority 2009, dated 2019).
Like-named read-outs stand apart in the source and are kept apart here.

Columns and labels:
[1] = system: Puccinia recondita f. sp. tritici; experiment: Test H: wheat leaf rust, curative spray on inoculated wheat seedlings, visual disease rating; conditions: for Test H disease control rating / Test H rating (% disease control): wheat leaf rust, 100 = 100% disease control; for Test H disease control rating: sprayed after inoculation, 0 = no disease control relative to controls; for pest or weed control at 200 µg/mL: 144 h
[2] = system: Erysiphe graminis f sp. tritici; experiment: Test J: wheat powdery mildew, preventive spray on wheat seedlings, visual disease rating; conditions: for Test J disease control rating / Test J rating (% disease control): wheat powdery mildew, 100 = 100% disease control; for Test J disease control rating: sprayed the day before inoculation, 0 = no disease control relative to controls; for pest or weed control at 200 µg/mL: Blumeria graminis, in Triticum aestivum, 192 h
[3] = system: Puccinia recondita f. sp. tritici; experiment: Test I: wheat leaf rust, preventive spray on wheat seedlings, visual disease rating; conditions: for Test I disease control rating / Test I rating (% disease control): wheat leaf rust, 100 = 100% disease control; for Test I disease control rating: sprayed the day before inoculation, 0 = no disease control relative to controls; for pest or weed control at 200 µg/mL: 192 h
Septoria tritici = experiment: Test G: wheat leaf blotch, preventive spray on wheat seedlings, visual disease rating; conditions: for Test G disease control rating / Test G rating (% disease control): wheat leaf blotch, 100 = 100% disease control; for Test G disease control rating: sprayed the day before inoculation, 0 = no disease control relative to controls; for pest or weed control at 200 µg/mL: Zymoseptoria tritici, in Triticum aestivum, 504 h
Description: (§1) General protocol for preparing test suspensions for Tests A-J: the test compounds were first dissolved in acetone in an amount equal to 3% of the final volume and then suspended at the desired concentration (in ppm) in acetone and purified water (50/50 mix by volume) containing 250 ppm of the surfactant Trem® 014 (polyhydric alcohol esters). The resulting test suspensions were then used in Tests A-J. Spraying a 200 ppm test suspension to the point of run-off on the test plants was the equivalent of a rate of 500 g/ha. Unless otherwise indicated, the rating values indicate a 200 ppm test suspension was used. (An asterisk “*” next to the rating value indicates a 40 ppm test suspension was used.)
The test suspension was sprayed to the point of run-off on wheat seedlings. The following day the seedlings were inoculated with a spore suspension of Septoria tritici (the causal agent of wheat leaf blotch) and incubated in saturated atmosphere at 24° C. for 48 h. and then the seedlings were moved to a growth chamber at 20° C. for 19 additional days, after which time visual disease ratings were made.

Alternaria solani = experiment: Test C: tomato early blight, preventive spray on tomato seedlings, visual disease rating; conditions: for Test C disease control rating / Test C rating (% disease control): tomato early blight, 100 = 100% disease control; for Test C disease control rating: 0 = no disease control relative to controls; for pest or weed control at 200 µg/mL: Alternaria solani, in Solanum lycopersicum, 168 h
Botrytis cinerea = experiment: Test B: tomato Botrytis, preventive spray on tomato seedlings, visual disease rating; conditions: for Test B disease control rating / Test B rating (% disease control): tomato Botrytis, 100 = 100% disease control; for Test B disease control rating: 0 = no disease control relative to controls; for pest or weed control at 200 µg/mL: Botrytis cinerea, in Solanum lycopersicum, 120 h
Description: as §1
The test suspension was sprayed to the point of run-off on tomato seedlings. The following day the seedlings were inoculated with a spore suspension of Botrytis cinerea (the causal agent of tomato Botrytis) and incubated in saturated atmosphere at 20° C. for 48 h, and then moved to a growth chamber at 24° C. for 3 additional days, after which time visual disease ratings were made.

Septoria nodorum = experiment: Test F: Septoria glume blotch, preventive spray on wheat seedlings, visual disease rating; conditions: for Test F disease control rating / Test F rating (% disease control): 100 = 100% disease control; for Test F disease control rating: 0 = no disease control relative to controls; for pest or weed control at 200 µg/mL: Parastagonospora nodorum, in Triticum aestivum, 192 h
[4] = curative, 0 = no control relative to controls
[5] = 0 = no control relative to controls
[6] = preventive, 0 = no control relative to controls
[7] = Septoria glume blotch, 0 = no control relative to controls
[8] = read-out: Test H disease control rating
[9] = read-out: Test J disease control rating
[10] = read-out: Test I disease control rating
[11] = read-out: Test G disease control rating
[12] = read-out: Test C disease control rating
[13] = read-out: Test B disease control rating
[14] = read-out: Test F disease control rating
[15] = preventive spray, 0 = no control
[16] = Septoria glume blotch on wheat, preventive spray, 0 = no control

## Cc1nn(C)c(Nc2ncc(Cl)cc2Cl)c1-c1ccc(F)cc1F [compound 328]
[1]
  Test H disease control rating: 0%
[2]
  Test J disease control rating: 100%
[3]
  Test I disease control rating: 98%
Septoria tritici
  Test G disease control rating: 100%
Alternaria solani
  Test C disease control rating: 86%
Botrytis cinerea
  Test B disease control rating: 100%
Septoria nodorum; Septoria glume blotch on wheat
  Test F disease control rating: 0%

## COc1ccc(-c2c(C)nn(C)c2Nc2ncc(Cl)cc2Cl)c(Cl)c1 [compound 267]
[1]; [4]
  Test H rating (% disease control): 0%
[2]; [5]
  Test J rating (% disease control): 93%
[3]; [6]
  Test I rating (% disease control): 96%
Septoria tritici; [5]
  Test G rating (% disease control): 100%
Alternaria solani; [5]
  Test C rating (% disease control): 79%
Botrytis cinerea; [5]
  Test B rating (% disease control): 100%
Septoria nodorum; [7]
  Test F rating (% disease control): 60%

## Cc1nn(C)c(Nc2ccc(C#N)cc2F)c1-c1ccc(F)cc1F [compound 246]
[1]; [4]
  Test H rating (% disease control): 0%
[2]; [5]
  Test J rating (% disease control): 100%
[3]; [6]
  Test I rating (% disease control): 80%
Septoria tritici; [5]
  Test G rating (% disease control): 100%
Alternaria solani; [5]
  Test C rating (% disease control): 51%
Botrytis cinerea; [5]
  Test B rating (% disease control): 99%
Septoria nodorum; [7]
  Test F rating (% disease control): 0%

## Cc1nn(C)c(Oc2ccc(C#N)cc2F)c1-c1c(F)cccc1F [Compound 361, 4-[[4-(2,6-difluorophenyl)-1,3-dimethyl-1H-pyrazol-5-yl]oxy]-3-fluorobenzonitrile]
[1]; [8]
  pest or weed control at 200 µg/mL: 0%
[2]; [9]
  pest or weed control at 200 µg/mL: 100%
[3]; [10]
  pest or weed control at 200 µg/mL: 100%
Septoria tritici; [11]
  pest or weed control at 200 µg/mL: 100%
Alternaria solani; [12]
  pest or weed control at 200 µg/mL: 90%
Botrytis cinerea; [13]
  pest or weed control at 200 µg/mL: 100%
Septoria nodorum; [14]
  pest or weed control at 200 µg/mL: 0%

## Cc1nn(C)c(Oc2ccc(F)cc2C#N)c1-c1ccc(F)cc1Cl [compound 149]
[1]; [4]
  Test H rating (% disease control): 99%
[2]; [5]
  Test J rating (% disease control): 100%
[3]; [6]
  Test I rating (% disease control): 100%
Septoria tritici; [5]
  Test G rating (% disease control): 100%
Alternaria solani; [5]
  Test C rating (% disease control): 98%
Botrytis cinerea; [5]
  Test B rating (% disease control): 100%
Septoria nodorum; [7]
  Test F rating (% disease control): 100%

## CCn1nc(C)c(-c2ccc(Cl)cc2)c1Nc1c(F)cccc1F [compound 61]
[1]; curative spray, 0 = no control
  Test H rating (% disease control): 0%
[2]; [15]
  Test J rating (% disease control): 73%
[3]; [15]
  Test I rating (% disease control): 38%
Septoria tritici; [15]
  Test G rating (% disease control): 99%
Alternaria solani; [15]
  Test C rating (% disease control): 0%
Botrytis cinerea; [15]
  Test B rating (% disease control): 97%
Septoria nodorum; [16]
  Test F rating (% disease control): 0%

## COc1cc(F)c(-c2c(C)nn(C)c2Nc2ccc(OC)cc2OC)c(F)c1 [compound 51]
[1]; curative spray, 0 = no control
  Test H rating (% disease control): 0%
[2]; [15]
  Test J rating (% disease control): 78%
[3]; [15]
  Test I rating (% disease control): 89%
Septoria tritici; [15]
  Test G rating (% disease control): 100%
Alternaria solani; [15]
  Test C rating (% disease control): 0%
Botrytis cinerea; [15]
  Test B rating (% disease control): 100%
Septoria nodorum; [16]
  Test F rating (% disease control): 0%

## COc1cc(F)c(Nc2c(-c3ccc(F)c(F)c3)c(C)nn2C)c(F)c1 [Compound 36, N-(2,6-difluoro-4-methoxyphenyl)-4-(3,4-difluorophenyl)-1,3-dimethyl-1H-pyrazol-5-amine]
[1]; read-out: Test H rating (% disease control)
  pest or weed control at 200 µg/mL: 0%
[2]; read-out: Test J rating (% disease control)
  pest or weed control at 200 µg/mL: 98%
[3]; read-out: Test I rating (% disease control)
  pest or weed control at 200 µg/mL: 96%
Septoria tritici; read-out: Test G rating (% disease control)
  pest or weed control at 200 µg/mL: 96%
Alternaria solani; read-out: Test C rating (% disease control)
  pest or weed control at 200 µg/mL: 0%
Botrytis cinerea; read-out: Test B rating (% disease control)
  pest or weed control at 200 µg/mL: 100%
Septoria nodorum; read-out: Test F rating (% disease control)
  pest or weed control at 200 µg/mL: 0%

## Cc1nn(C)c(Oc2ccc(C#N)c(C#N)c2)c1-c1ccc(F)cc1Cl [compound 168]
[1]; [4]
  Test H rating (% disease control): 0%
[2]; [5]
  Test J rating (% disease control): 0%
[3]; [6]
  Test I rating (% disease control): 0%
Septoria tritici; [5]
  Test G rating (% disease control): 33%
Alternaria solani; [5]
  Test C rating (% disease control): 0%
Botrytis cinerea; [5]
  Test B rating (% disease control): 14%
Septoria nodorum; [7]
  Test F rating (% disease control): 0%

## Cc1nn(C)c(Nc2ncc(F)cc2F)c1-c1ccc(F)cc1Cl [compound 154]
[1]; [4]
  Test H rating (% disease control): 41%
[2]; [5]
  Test J rating (% disease control): 100%
[3]; [6]
  Test I rating (% disease control): 100%
Septoria tritici; [5]
  Test G rating (% disease control): 100%
Alternaria solani; [5]
  Test C rating (% disease control): 99%
Botrytis cinerea; [5]
  Test B rating (% disease control): 99%
Septoria nodorum; [7]
  Test F rating (% disease control): 97%

## Cc1nn(C)c(Nc2c(F)cc(Cl)cc2F)c1-c1ccc(F)cc1Br [Compound 360, 4-(2-bromo-4-fluorophenyl)-N-(4-chloro-2,6-difluorophenyl)-1,3-dimethyl-1H-pyrazol-5-amine]
[1]; [8]
  pest or weed control at 200 µg/mL: 79%
[2]; [9]
  pest or weed control at 200 µg/mL: 100%
[3]; [10]
  pest or weed control at 200 µg/mL: 100%
Septoria tritici; [11]
  pest or weed control at 200 µg/mL: 100%
Alternaria solani; [12]
  pest or weed control at 200 µg/mL: 97%
Botrytis cinerea; [13]
  pest or weed control at 200 µg/mL: 100%
Septoria nodorum; [14]
  pest or weed control at 200 µg/mL: 95%

## Cc1nn(C)c(Nc2ccc(Br)cc2F)c1-c1ccc(F)cc1Cl [compound 366]
[1]
  Test H disease control rating: 9%
[2]
  Test J disease control rating: 100%
[3]
  Test I disease control rating: 99%
Septoria tritici
  Test G disease control rating: 100%
Alternaria solani
  Test C disease control rating: 58%
Botrytis cinerea
  Test B disease control rating: 100%
Septoria nodorum; Septoria glume blotch on wheat
  Test F disease control rating: 0%

## COc1ccc(Nc2c(-c3ccc(Cl)cc3Cl)c(C)nn2C)cc1OC [compound 74]
[1]; curative spray, 0 = no control
  Test H rating (% disease control): 4%
[2]; [15]
  Test J rating (% disease control): 0%
[3]; [15]
  Test I rating (% disease control): 0%
Septoria tritici; [15]
  Test G rating (% disease control): 25%
Alternaria solani; [15]
  Test C rating (% disease control): 0%
Botrytis cinerea; [15]
  Test B rating (% disease control): 0%
Septoria nodorum; [16]
  Test F rating (% disease control): 0%

## Cc1nn(C)c(Nc2ncc(Cl)cc2Cl)c1-c1c(F)cccc1F [compound 321]
[1]
  Test H disease control rating: 9%
[2]
  Test J disease control rating: 100%
[3]
  Test I disease control rating: 99%
Septoria tritici
  Test G disease control rating: 100%
Alternaria solani
  Test C disease control rating: 99%
Botrytis cinerea
  Test B disease control rating: 100%
Septoria nodorum; Septoria glume blotch on wheat
  Test F disease control rating: 78%

## COc1ccc(-c2c(C)nn(C)c2Oc2ccc(C#N)cc2F)c(Cl)c1 [compound 310]
[1]
  Test H disease control rating: 0%
[2]
  Test J disease control rating: 96%
[3]
  Test I disease control rating: 99%
Septoria tritici
  Test G disease control rating: 100%
Alternaria solani
  Test C disease control rating: 99%
Botrytis cinerea
  Test B disease control rating: 100%
Septoria nodorum; Septoria glume blotch on wheat
  Test F disease control rating: 99%

## Cc1nn(C)c(Nc2c(F)cc(F)cc2F)c1-c1c(F)cccc1C(F)(F)F [compound 262]
[1]; [4]
  Test H rating (% disease control): 0%
[2]; [5]
  Test J rating (% disease control): 99%
[3]; [6]
  Test I rating (% disease control): 68%
Septoria tritici; [5]
  Test G rating (% disease control): 0%
Alternaria solani; [5]
  Test C rating (% disease control): 51%
Botrytis cinerea; [5]
  Test B rating (% disease control): 99%
Septoria nodorum; [7]
  Test F rating (% disease control): 0%

## Cc1nn(C)c(Nc2cc(C#N)ccc2Cl)c1-c1ccc(F)cc1F [compound 291]
[1]; [4]
  Test H rating (% disease control): 0%
[2]; [5]
  Test J rating (% disease control): 43%
[3]; [6]
  Test I rating (% disease control): 85%
Septoria tritici; [5]
  Test G rating (% disease control): 98%
Alternaria solani; [5]
  Test C rating (% disease control): 0%
Botrytis cinerea; [5]
  Test B rating (% disease control): 99%
Septoria nodorum; [7]
  Test F rating (% disease control): 0%

## COc1cc(Cl)c(Nc2c(-c3ccc(F)cc3Cl)c(C)nn2C)c(Cl)c1 [compound 296]
[1]; [4]
  Test H rating (% disease control): 0%
[3]; [6]
  Test I rating (% disease control): 99%
Septoria tritici; [5]
  Test G rating (% disease control): 100%
Alternaria solani; [5]
  Test C rating (% disease control): 0%
Botrytis cinerea; [5]
  Test B rating (% disease control): 99%
Septoria nodorum; [7]
  Test F rating (% disease control): 0%

## COc1cc(Cl)c(Nc2c(-c3ccc(F)cc3Br)c(C)nn2C)c(Cl)c1 [compound 323]
[1]
  Test H disease control rating: 0%
[3]
  Test I disease control rating: 94%
Septoria tritici
  Test G disease control rating: 98%
Alternaria solani
  Test C disease control rating: 0%
Botrytis cinerea
  Test B disease control rating: 98%
Septoria nodorum; Septoria glume blotch on wheat
  Test F disease control rating: 0%

## COc1cc(F)c(-c2c(C)nn(C)c2Oc2ccc(Br)c(OC)c2)c(F)c1 [compound 212]
[1]; [4]
  Test H rating (% disease control): 0%
Septoria tritici; [5]
  Test G rating (% disease control): 98%
Alternaria solani; [5]
  Test C rating (% disease control): 17%
Botrytis cinerea; [5]
  Test B rating (% disease control): 0%
